Among the data in patent US9862678B2, “3,4-diaminobenzenesulfonamide derivatives for inhibiting cell death” (VIB VZW, priority 2014, dated 2018) are IC50 values, retold here.

In general, IC50 refers to the concentration needed to halve the response being measured. Low values mean inhibition by little substance, high ones a need for much substance.

The test system of this assay is IMR-32 neuroblastoma cell line. Nature of the assay: Inhibition of erastin-induced ferroptosis in IMR-32 cells (Sytox Green cell death readout). Format: cell-based. To be noted: Homo sapiens; inhibiting ferroptosis in the IMR-32 neuroblastoma cell line stimulated with 10 μM erastin; compounds 1 nM to 1 μM, triplicate. On the procedure: In the present disclosure, the potency of a compound inhibiting (or reducing) ferroptosis and/or oxytosis are determined in in vitro or in vivo assays. Typically in vitro assays are used to measure the potency of a candidate compound. Examples of suitable in vitro assays are cellular assays. One non-limiting example of an assay involves the use of the IMR-32 neuroblastoma cell line. The latter is stimulated to enter into ferroptosis upon stimulation with 10 μM erastin, a documented ferroptosis inducer (see, for example, Dixon et al. (2012) Cell 149, 1060-1072, and ferroptosis inhibitors are evaluated for the prevention of erastin-induced ferroptosis. Yet another assay is based the glutamate-induced cell death in the hippocampal cell line HT22 and ferroptosis/oxytosis inhibitors are evaluated for the prevention of cell death (see N. Henke et al. (2013) Cell Death and Disease 4, e470). Still another assay is based on the sorafinib-induced cell death (described to be iron dependent cell death) in hepatocellular carcinoma cells and ferroptosis inhibitors are evaluated for the prevention of cell death (see C. Louandre et al. (2013) Int. J. Cancer 133, 1732). The calculated potency of a compound inhibiting ferroptosis and/or oxytosis is typically depicted as an IC50 value. Examples of suitable in vivo assays are typically pre-clinical disease models of, for example, mice for the diseases benefiting the application of ferroptosis and/or oxytosis inhibitors, as described herein. One non-limiting example of an in vivo assay is based on inducing liver damage in mice by administering the herbicide diquat dibromide monohydrate and ferroptosis inhibitors are evaluated based on reduced levels of liver transaminases in serum (see Q. Ran et al. (2004) J. Biol. Chem. 279, 53, 55137).
The IC50 values for the individual compounds of the disclosure were determined in the neuroblastoma, IMR-32 cell line. In brief, IMR-32 cells were subjected to 10 μM erastin, the latter compound is known to induce ferroptosis. A concentration gradient (ranging from 1 nM to 1 μM) of the compounds was applied to the cells. These experiments were performed in a 96-well format (in triplicate), and cell death was analyzed in a fluorescent plate reader by use of a fluorescent cell death dye (1.5 μM Sytox Green). The IC50 values depicted in Table 1 are the concentration values for the individual compounds which are able to overcome ferroptosis.
On to `CCNS(=O)(=O)c1ccc(NC2CC3CCC2C3)c(NCc2ccccc2)c1` (centres unmarked) [Compound 40, 3-(benzylamino)-4-(bicyclo[2.2.1]heptan-2-ylamino)-N-ethylbenzenesulfonamide], for which inhibition was half-maximal at 3 nM (IC50). In other words, the single-digit nanomolar range.

The compound `CCNS(=O)(=O)c1ccc(NC2CCCCCCC2)c(N)c1` [Compound 24, 3-amino-4-(cyclooctylamino)-N-ethylbenzenesulfonamide] displayed a half-inhibitory concentration (IC50) of 9.3 nM. Next, `CCNS(=O)(=O)c1ccc(NC2CCCCC2)c(NCc2ccncc2)c1` [Compound 38, 4-(cyclohexylamino)-N-ethyl-3-((pyridin-4-ylmethyl)amino)benzenesulfonamide]: 23 nM. As for `CC(C)(C)NS(=O)(=O)c1ccc(NC2C3CC4CC(C3)CC2C4)c(NCc2ccccc2)c1` (centres unmarked) [Compound 53, 4-(adamantan-2-ylamino)-3-(benzylamino)-N-(tert-butyl)benzenesulfonamide], the figure is 3.4 nM; as for `CCNS(=O)(=O)c1ccc(NC2CCCC2)c(N)c1` [Compound 21, 3-amino-4-(cyclopentylamino)-N-ethylbenzenesulfonamide], 82 nM. Next, `CCNS(=O)(=O)c1ccc(NC2C3CC4CC(C3)CC2C4)c(NCc2cncnc2)c1` (centres unmarked) [Compound 46, 4-(adamantan-2-ylamino)-N-ethyl-3-((pyrimidin-5-ylmethyl)amino)benzenesulfonamide]: 47 nM; `CCNS(=O)(=O)c1ccc(NC2CCCC2)c(NCc2ccncc2)c1` [Compound 36, 4-(cyclopentylamino)-N-ethyl-3-((pyridin-4-ylmethyl)amino)benzenesulfonamide]: 36 nM.

`CNS(=O)(=O)c1ccc(NC2C3CC4CC(C3)CC2C4)c(NCc2ccncc2)c1` (centres unmarked) [Compound 50, 4-(adamantan-2-ylamino)-N-methyl-3-((pyridin-4-ylmethyl)amino)benzenesulfonamide] gave a concentration for half-maximal inhibition (IC50) of 6.4 nM. This IC50 is about 5.6-fold lower than that of the compound before.

Take `CC(C)(C)OCCNS(=O)(=O)c1ccc(NC2CCCCC2)c(NCc2ccccc2)c1` [Compound 55, 3-(benzylamino)-N-(2-(tert-butoxy)ethyl)-4-(cyclohexylamino)benzenesulfonamide]: the midpoint of inhibition, the IC50, lay at 22 nM. The compound `CCNS(=O)(=O)c1ccc(NC2CCCCCCC2)c(NCc2ccncc2)c1` [Compound 43, 4-(cyclooctylamino)-N-ethyl-3-((pyridin-4-ylmethyl)amino)benzenesulfonamide] returned an IC50 of 22 nM. This counts as double-digit nanomolar.

Take `CCNS(=O)(=O)c1ccc(NC2CCCC2)c(NCc2ccccc2)c1` [Compound 35, 3-(benzylamino)-4-(cyclopentylamino)-N-ethylbenzenesulfonamide]: the IC50 worked out at 8.2 nM. As for `CC(C)(C)NS(=O)(=O)c1ccc(NC2C3CC4CC(C3)CC2C4)c(N)c1` (centres unmarked) [Compound 29, 3-amino-N-(tert-butyl)-4-(adamantan-2-ylamine)benzenesulfonamide], the figure is 6 nM; as for `CCNS(=O)(=O)c1ccc(NC2CC3CCC2C3)c(N)c1` (centres unmarked) [Compound 23, 3-amino-4-(bicyclo[2.2.1]heptan-2-ylamino)-N-ethylbenzenesulfonamide], 28 nM; as for `CNS(=O)(=O)c1ccc(NC2CCCCC2)c(NCc2ccncc2)c1` [Compound 48, 4-(cyclohexylamino)-N-methyl-3-((pyridin-4-ylmethyl)amino)benzenesulfonamide], 15 nM.

As to `CCNS(=O)(=O)c1ccc(NC2CC2)c(N)c1` [Compound 20, 3-amino-4-(cyclopropylamino)-N-ethylbenzenesulfonamide], the IC50 amounted to 76 nM. On to `CCNS(=O)(=O)c1ccc(NC2CC2)c(NCc2ccncc2)c1` [Compound 34, 4-(cyclopropylamino)-N-ethyl-3-((pyridin-4-ylmethyl)amino)benzenesulfonamide], for which the 50% inhibitory concentration (IC50) was found to be 128 nM.

With `CNS(=O)(=O)c1ccc(NC2CCCCC2)c(NCc2ccccc2)c1` [Compound 47, 3-(benzylamino)-4-(cyclohexylamino)-N-methylbenzenesulfonamide], the 50% inhibitory concentration (IC50) worked out at 3.7 nM. In the case of `CCNS(=O)(=O)c1ccc(NC2C3CC4CC(C3)CC2C4)c(N)c1` (centres unmarked) [Compound 25, 4-(adamantan-2-ylamino)-3-amino-N-ethylbenzenesulfonamide], the IC50 turned out to be 17 nM.

Turning to `CC(C)(C)NS(=O)(=O)c1ccc(NC2CCCCC2)c(NCc2ccccc2)c1` [Compound 51, 3-(benzylamino)-N-(tert-butyl)-4-(cyclohexylamino)benzenesulfonamide], the midpoint of inhibition, the IC50, lay at 6.2 nM. As for `CCNS(=O)(=O)c1ccc(NC2CCCCCCC2)c(NCc2ccccc2)c1` [Compound 42, 3-(benzylamino)-4-(cyclooctylamino)-N-ethylbenzenesulfonamide], the figure is 2.4 nM; as for `CC(C)(C)NS(=O)(=O)c1ccc(NC2C3CC4CC(C3)CC2C4)c(NCc2ccncc2)c1` (centres unmarked) [Compound 54, 4-(adamantan-2-ylamino)-N-(tert-butyl)-3-((pyridin-4-ylmethyl)amino)benzenesulfonamide], 5.2 nM.

With `CNS(=O)(=O)c1ccc(NC2C3CC4CC(C3)CC2C4)c(N)c1` (centres unmarked) [Compound 27, 3-amino-4-(adamantan-2-ylamine)-N-methylbenzenesulfonamide], half-maximal inhibition (IC50) required 11 nM.

`CCNS(=O)(=O)c1ccc(NC2CC3CCC2C3)c(NCc2ccncc2)c1` (centres unmarked) [Compound 41, 4-(bicyclo[2.2.1]heptan-2-ylamino)-N-ethyl-3-((pyridin-4-ylmethyl)amino) benzenesulfonamide] showed a half-maximal inhibitory concentration (IC50) of 9.4 nM. As for `CNS(=O)(=O)c1ccc(NC2C3CC4CC(C3)CC2C4)c(NCc2ccccc2)c1` (centres unmarked) [Compound 49, 4-(adamantan-2-ylamino)-3-(benzylamino)-N-methylbenzenesulfonamide], the figure is 4.9 nM; as for `CNS(=O)(=O)c1ccc(NC2CCCCC2)c(N)c1` [Compound 26, 3-amino-4-(cyclohexylamino)-N-methylbenzenesulfonamide], 76 nM.

Regarding `CC(C)(C)NS(=O)(=O)c1ccc(NC2CCCCC2)c(N)c1` [Compound 28, 3-amino-N-(tert-butyl)-4-(cyclohexylamino)benzenesulfonamide], the half-inhibitory concentration (IC50) came out at 27 nM. This IC50 lies about 2.8-fold lower than the previous one. Next, `CCNS(=O)(=O)c1ccc(NC2CC2)c(NCc2ccccc2)c1` [Compound 33, 3-(benzylamino)-4-(cyclopropylamino)-N-ethylbenzenesulfonamide]: 61 nM; `CC(C)(C)OCCNS(=O)(=O)c1ccc(NC2CCCCC2)c(N)c1` [Compound 30, 3-amino-N-(2-(tert-butoxy)ethyl)-4-(cyclohexylamino)benzenesulfonamide]: 132 nM. Compound `CC(C)(C)NS(=O)(=O)c1ccc(NC2CCCCC2)c(NCc2ccncc2)c1` [Compound 52, N-(tert-butyl)-4-(cyclohexylamino)-3-((pyridin-4-ylmethyl)amino)benzenesulfonamide] returned an IC50 of 11 nM.
